How the values were obtained:
[1] = tested on: IL-4 stimulated pSTAT6 in CD3+ T cells; test: Assay 5: Inhibition of IL-4 stimulated pSTAT6 in CD3+ T cells; format: cell-based; details: T-cell; CD3+ T cells in human PBMCs, flow cytometry; read-out: pIC50, inhibition of IL-4 stimulated pSTAT6 (converted)
Procedure: The potency of the test compound for inhibition of interleukin-4 (IL-4) stimulated STAT6 phosphorylation was measured in CD3-positive (CD3+) T cells in human peripheral blood mononuclear cells (PBMCs) isolated from human whole blood (Stanford Blood Center) using flow cytometry. Because IL-4 signals through JAK, this assay provides a measure of JAK cellular potency.
CD3+ T cells were identified using a […] (PE) conjugated anti-CD3 antibody (Clone UCHT1, BD Biosciences), while an Alexa Fluor 647 conjugated anti-pSTAT6 antibody (pY641, Clone 18/P, BD Biosciences) was used to detect STAT6 phosphorylation.
Human peripheral blood mononuclear cells (PBMC) were isolated from human whole blood of healthy donors as in Assays 3 and 4. […] After incubation, cells were washed twice in FACS buffer before being analyzed using a LSRII flow cytometer (BD Biosciences).
To determine the inhibitory potency of the test compound in response to IL-4, the median fluorescent intensity (MFI) of pSTAT6 was measured in CD3+ T cells. IC50 values were determined from analysis of the inhibition curves of MFI vs compound concentration. Data are expressed as pIC50 (negative decadic logarithm IC50).

[2] = biological target: T1, JAK3 (Homo sapiens, UniProt P52333); test: Assay 1: LanthaScreen biochemical JAK kinase assay, JAK3; details: converted from pIC50 by Cheng-Prusoff; ATP at Km 1.6 μM; read-out: JAK 3 pKi (converted)
T1 construct: GST; purchased Life Technologies
T1 sequence (P52333 1-1124): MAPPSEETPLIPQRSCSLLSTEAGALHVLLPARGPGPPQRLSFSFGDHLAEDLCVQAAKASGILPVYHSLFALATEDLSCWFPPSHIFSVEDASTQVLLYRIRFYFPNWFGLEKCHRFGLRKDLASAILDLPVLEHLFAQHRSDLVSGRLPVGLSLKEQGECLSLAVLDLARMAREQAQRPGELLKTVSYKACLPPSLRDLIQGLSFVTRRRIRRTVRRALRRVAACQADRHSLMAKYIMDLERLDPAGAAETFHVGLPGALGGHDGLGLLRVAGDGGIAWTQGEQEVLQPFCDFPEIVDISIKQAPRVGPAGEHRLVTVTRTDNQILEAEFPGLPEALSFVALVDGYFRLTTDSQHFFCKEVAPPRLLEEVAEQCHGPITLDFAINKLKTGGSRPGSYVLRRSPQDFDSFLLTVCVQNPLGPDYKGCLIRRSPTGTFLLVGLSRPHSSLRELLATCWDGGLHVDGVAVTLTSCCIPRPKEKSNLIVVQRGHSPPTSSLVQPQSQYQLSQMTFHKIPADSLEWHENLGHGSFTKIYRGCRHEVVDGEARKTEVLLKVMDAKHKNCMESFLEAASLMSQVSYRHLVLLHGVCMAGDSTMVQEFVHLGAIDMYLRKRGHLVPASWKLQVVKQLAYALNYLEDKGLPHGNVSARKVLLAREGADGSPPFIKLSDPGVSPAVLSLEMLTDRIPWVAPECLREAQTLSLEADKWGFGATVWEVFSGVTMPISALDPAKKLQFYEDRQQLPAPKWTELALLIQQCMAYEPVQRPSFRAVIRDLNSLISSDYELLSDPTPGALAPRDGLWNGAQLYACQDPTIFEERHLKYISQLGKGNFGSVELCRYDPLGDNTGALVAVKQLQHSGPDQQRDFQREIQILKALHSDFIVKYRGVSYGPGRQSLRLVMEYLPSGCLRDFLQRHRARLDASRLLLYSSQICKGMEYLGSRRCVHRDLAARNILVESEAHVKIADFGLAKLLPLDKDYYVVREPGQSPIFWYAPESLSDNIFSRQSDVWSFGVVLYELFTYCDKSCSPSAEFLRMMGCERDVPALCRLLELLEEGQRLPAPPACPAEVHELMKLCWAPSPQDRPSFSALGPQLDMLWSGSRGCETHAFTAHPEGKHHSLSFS
Procedure: A panel of four LanthaScreen JAK biochemical assays (JAK1, 2, 3 and Tyk2) were carried in a common kinase reaction buffer (50 mM HEPES, pH 7.5, 0.01% Brij-35, 10 mM MgCl2, and 1 mM EGTA). Recombinant GST-tagged JAK enzymes and a GFP-tagged STAT1 peptide substrate were obtained from Life Technologies.
ATP was subsequently added to initiate the kinase reactions in 10 μL total volume, with 1% DMSO. […] Kinase reactions were allowed to proceed for 1 hour at ambient temperature before a 10 μL preparation of EDTA (10 mM final concentration) and Tb-anti-pSTAT1 (pTyr701) antibody (Life Technologies, 2 nM final concentration) in TR-FRET dilution buffer (Life Technologies) was added. […] Emission ratio signals (520 nm/495 nm) were recorded and utilized to calculate the percent inhibition values based on DMSO and background controls.
For dose-response analysis, percent inhibition data were plotted vs. compound concentrations, and IC50 values were determined from a 4-parameter robust fit model with the Prism software (GraphPad Software).

CCc1cc(O)c(F)cc1-c1ccc2c(-c3nc4c([nH]3)CCN(C3CCN(C)CC3)C4)n[nH]c2c1 [Compound 1, 5-ethyl-2-fluoro-4-(3-(5-(1-methylpiperidin-4-yl)-4,5,6,7-tetrahydro-1H-imidazo[4,5-c]pyridin-2-yl)-1H-indazol-6-yl)phenol]
IC50 [1]: 7.94 nM | Ki [2]: 0.2 nM

Reference: US10251874B2, “Crystalline forms of a JAK inhibitor compound” (THERAVANCE BIOPHARMA R&D IP, LLC, priority 2017, dated 2019)
